Source: patent US9315491B2 (DEVELOPMENT CENTER FOR BIOTECHNOLOGY, priority 2009, dated 2016)

Columns and labels:
PI3K (p110α/p85α) = PI3K (p110α/p85α) (Homo sapiens (Human), UniProt P42336); test: PI3K HTRF enzyme assay, p110α/p85α; type: biochemical; conditions: read-out: % inhibition @ 500 nM p110α; compound at 500 nM, 10 μM ATP
Method: Recombinant PI3K (p110α/p85α) and PI3K (p110β/p85α) were from Millipore. […] Briefly, the compounds of interest dissolved in 100% DMSO were dispensed in all wells, following which the mixture of PIP2 and enzyme was added. PI3K (p110α/p85α) and PI3K (p110β/p85α) enzyme reactions were initiated in the presence of 10 μM and 100 μM ATP, respectively, and incubated for 30 min at room temperature. STOP solution prepared 2 hours prior to use was added to stop reactions, and mixed well. Detection solution prepared 2 hours prior to use was added, and incubated at room temperature for 17 hours in the dark. […] HTRF ration was calculated as follows: […]

recombinant mTOR = recombinant mTOR (Homo sapiens (Human), UniProt P42345); test: mTOR kinase assay (33P incorporation into 4EBP1); type: biochemical; conditions: compound at 10 μM, 10 μM ATP
In short: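 Recombinant human mTOR (50 ng) phosphorylated His-tagged 4EBP1 (300 ng) with 10 μM ATP plus [γ-33P]-ATP in HEPES pH 7.5, MnCl2, EGTA and DTT for 30 min at 30° C. Labelled 4EBP1 was filter-captured and counted. IC50 was derived from eight-point duplicate dilution series.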

Chain of PI3K (p110α/p85α) (P42336 whole entry, species assumed): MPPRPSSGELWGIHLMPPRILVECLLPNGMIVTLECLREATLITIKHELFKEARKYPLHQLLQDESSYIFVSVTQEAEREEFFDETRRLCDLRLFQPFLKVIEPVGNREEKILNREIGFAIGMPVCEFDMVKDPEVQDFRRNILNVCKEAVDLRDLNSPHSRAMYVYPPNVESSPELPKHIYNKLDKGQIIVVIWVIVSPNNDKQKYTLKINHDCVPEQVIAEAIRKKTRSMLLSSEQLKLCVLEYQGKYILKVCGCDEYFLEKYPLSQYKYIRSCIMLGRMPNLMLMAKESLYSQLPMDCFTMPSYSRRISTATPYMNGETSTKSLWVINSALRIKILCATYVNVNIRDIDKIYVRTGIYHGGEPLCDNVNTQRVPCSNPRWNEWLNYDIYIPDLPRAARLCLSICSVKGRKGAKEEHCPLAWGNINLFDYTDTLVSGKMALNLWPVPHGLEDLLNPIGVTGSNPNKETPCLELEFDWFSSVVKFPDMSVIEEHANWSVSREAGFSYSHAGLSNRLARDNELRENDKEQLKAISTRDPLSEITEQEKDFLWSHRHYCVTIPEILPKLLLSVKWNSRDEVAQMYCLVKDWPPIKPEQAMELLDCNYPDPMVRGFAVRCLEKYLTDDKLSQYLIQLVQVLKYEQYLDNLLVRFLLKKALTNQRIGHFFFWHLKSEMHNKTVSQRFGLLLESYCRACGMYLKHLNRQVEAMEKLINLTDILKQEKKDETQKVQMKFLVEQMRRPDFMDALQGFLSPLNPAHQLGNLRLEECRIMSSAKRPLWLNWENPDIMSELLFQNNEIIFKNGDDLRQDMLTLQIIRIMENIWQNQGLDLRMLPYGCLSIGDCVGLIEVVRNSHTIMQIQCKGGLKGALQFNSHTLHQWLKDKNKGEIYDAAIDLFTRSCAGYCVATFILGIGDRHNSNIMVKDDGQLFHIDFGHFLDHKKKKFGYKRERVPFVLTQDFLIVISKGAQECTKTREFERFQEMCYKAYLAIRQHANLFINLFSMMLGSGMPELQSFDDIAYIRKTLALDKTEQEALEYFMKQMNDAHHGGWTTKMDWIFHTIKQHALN
Chain of PI3K (p110α/p85α) (P27986 whole entry partner, species assumed): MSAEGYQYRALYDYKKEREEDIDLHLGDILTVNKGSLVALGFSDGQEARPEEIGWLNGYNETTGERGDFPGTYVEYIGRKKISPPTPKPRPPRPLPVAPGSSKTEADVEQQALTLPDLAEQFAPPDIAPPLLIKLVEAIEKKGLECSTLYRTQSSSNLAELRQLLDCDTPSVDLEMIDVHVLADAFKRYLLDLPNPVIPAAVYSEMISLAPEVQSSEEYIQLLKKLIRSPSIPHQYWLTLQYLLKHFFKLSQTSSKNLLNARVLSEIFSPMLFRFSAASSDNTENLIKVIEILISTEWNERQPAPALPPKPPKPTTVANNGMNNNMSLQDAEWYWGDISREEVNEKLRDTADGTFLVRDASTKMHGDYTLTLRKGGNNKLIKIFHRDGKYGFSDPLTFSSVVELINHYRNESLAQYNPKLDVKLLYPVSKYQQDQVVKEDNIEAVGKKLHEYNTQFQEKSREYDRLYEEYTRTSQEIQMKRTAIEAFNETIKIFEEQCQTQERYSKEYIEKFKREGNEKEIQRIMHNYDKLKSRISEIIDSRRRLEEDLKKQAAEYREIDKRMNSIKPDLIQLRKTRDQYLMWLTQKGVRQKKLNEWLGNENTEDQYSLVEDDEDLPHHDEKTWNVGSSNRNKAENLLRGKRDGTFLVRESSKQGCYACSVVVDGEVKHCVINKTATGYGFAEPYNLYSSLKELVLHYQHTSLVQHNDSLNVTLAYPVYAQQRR
Chain of recombinant mTOR (P42345 1360-2549): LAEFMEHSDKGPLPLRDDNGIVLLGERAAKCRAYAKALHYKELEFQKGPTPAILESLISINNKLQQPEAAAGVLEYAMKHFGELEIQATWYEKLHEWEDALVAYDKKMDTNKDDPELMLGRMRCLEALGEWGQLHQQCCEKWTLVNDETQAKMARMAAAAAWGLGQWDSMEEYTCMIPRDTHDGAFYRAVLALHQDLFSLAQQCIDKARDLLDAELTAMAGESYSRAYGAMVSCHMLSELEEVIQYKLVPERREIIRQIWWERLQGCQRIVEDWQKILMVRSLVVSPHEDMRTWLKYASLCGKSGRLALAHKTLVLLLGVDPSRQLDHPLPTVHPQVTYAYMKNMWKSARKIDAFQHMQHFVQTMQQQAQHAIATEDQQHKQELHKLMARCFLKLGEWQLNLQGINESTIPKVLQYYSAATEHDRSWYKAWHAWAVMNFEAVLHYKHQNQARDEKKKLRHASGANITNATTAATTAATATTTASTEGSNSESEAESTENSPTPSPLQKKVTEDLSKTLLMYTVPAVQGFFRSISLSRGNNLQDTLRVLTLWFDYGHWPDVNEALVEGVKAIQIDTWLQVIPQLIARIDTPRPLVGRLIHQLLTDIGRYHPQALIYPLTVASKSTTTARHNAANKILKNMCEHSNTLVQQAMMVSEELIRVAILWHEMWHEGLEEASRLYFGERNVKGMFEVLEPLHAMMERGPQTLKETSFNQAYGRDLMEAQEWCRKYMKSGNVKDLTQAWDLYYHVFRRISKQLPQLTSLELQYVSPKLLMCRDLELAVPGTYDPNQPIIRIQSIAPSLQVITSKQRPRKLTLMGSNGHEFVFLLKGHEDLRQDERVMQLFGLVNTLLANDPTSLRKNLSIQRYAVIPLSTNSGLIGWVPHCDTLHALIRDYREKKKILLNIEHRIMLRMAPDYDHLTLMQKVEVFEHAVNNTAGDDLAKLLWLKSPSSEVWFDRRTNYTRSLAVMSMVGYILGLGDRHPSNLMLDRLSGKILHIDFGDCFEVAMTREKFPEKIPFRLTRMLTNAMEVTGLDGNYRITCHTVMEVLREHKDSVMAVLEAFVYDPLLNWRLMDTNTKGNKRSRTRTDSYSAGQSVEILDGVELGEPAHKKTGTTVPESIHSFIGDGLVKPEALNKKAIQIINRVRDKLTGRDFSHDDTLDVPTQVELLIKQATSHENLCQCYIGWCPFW

Q: Which inhibition at 0.5 µM (PI3K (p110α/p85α)) does the source give for `CCOC(=O)c1nc(-c2ccc(NC(=O)Nc3ccccc3)cc2)nc(N2CCOCC2)c1OCC` [MTR-0069, 5-Ethoxy-6-morpholin-4-yl-2-[4-(3-phenyl-ureido)-phenyl]-pyrimidine-4-carboxylic acid ethyl ester] here?
A: 53.8%

Q: For `CSc1cnc(-c2ccc(NC(=O)Nc3ccc(N4CCOCC4=O)cc3)cc2F)nc1N1CCOCC1` [MTR-0378, 1-[3-Fluoro-4-(5-methylsulfanyl-4-morpholin-4-yl-pyrimidin-2-yl)-phenyl]-3-[4-(3-oxo-morpholin-4-yl)-phenyl]-urea], which inhibition at 0.5 µM (PI3K (p110α/p85α)) is on record?
A: 84.5%

Q: How did the inhibition at 0.5 µM (PI3K (p110α/p85α)) turn out when `COc1cnc(-c2ccc(NC(=O)Nc3ccc(N4CCOCC4)cc3)cc2)nc1N1CCOCC1` [MTR-0261, 1-[4-(5-Methoxy-4-morpholin-4-yl-pyrimidin-2-yl)-phenyl]-3-(4-morpholin-4-yl-phenyl)-urea] was run?
A: 58.4%

Q: `CCOc1cnc(-c2ccc(NC(=O)Nc3ccc(C(=O)N4CCOCC4)cc3)cc2)nc1N1CCOCC1` [MTR-0421, 1-[4-(5-Ethoxy-4-morpholin-4-yl-pyrimidin-2-yl)-phenyl]-3-[4-(morpholine-4-carbonyl)-phenyl]-urea] was tested. Which inhibition at 0.5 µM (PI3K (p110α/p85α)) did it give?
A: 98.7%

Q: With `CSc1c(-c2ccncc2)nc(-c2ccc(NC(=O)Nc3ccc(N4CCOCC4=O)cc3)cc2)nc1N1CCOCC1` [MTR-0391, 1-[4-(5-Methylsulfanyl-4-morpholin-4-yl-6-pyridin-4-yl-pyrimidin-2-yl)-phenyl]-3-[4-(3-oxo-morpholin-4-yl)-phenyl]-urea] as the compound, how does the inhibition at 0.5 µM (PI3K (p110α/p85α)) read?
A: 51.7%

Q: For `COc1cnc(-c2ccc(NC(=O)Nc3ccc(N4CCOCC4=O)cc3)cc2)nc1N1CCOCC1` [MTR-0241, 1-[4-(5-Methoxy-4-morpholin-4-yl-pyrimidin-2-yl)-phenyl]-3-[4-(3-oxo-morpholin-4-yl)-phenyl]-urea], which inhibition at 0.5 µM (PI3K (p110α/p85α)) is on record?
A: 94.8%

Q: How did the inhibition at 0.5 µM (PI3K (p110α/p85α)) turn out when `CSc1c(Cl)nc(-c2ccc(NC(=O)Nc3ccc(C(=O)N4CCC(N(C)C)CC4)cc3)cc2)nc1N1CCOCC1` [MTR-0436, 1-[4-(4-Chloro-5-methylsulfanyl-6-morpholin-4-yl-pyrimidin-2-yl)-phenyl]-3-[4-(4-dimethylamino-piperidine-1-carbonyl)-phenyl]-urea] was run?
A: 71.5%

Q: Which inhibition at 0.5 µM (PI3K (p110α/p85α)) does the source give for `CCOC(=O)c1nc(-c2ccc(NC(=O)Nc3ccc(C(=O)N4CCN(C)CC4)cc3)cc2)nc(N2CCOCC2)c1OCC` [MTR-0274, 5-Ethoxy-2-(4-{3-[4-(4-methyl-piperazine-1-carbonyl)-phenyl]-ureido}-phenyl)-6-morpholin-4-yl-pyrimidine-4-carboxylic acid ethyl ester] here?
A: 59%

Q: With `CCOC(=O)c1nc(-c2ccc(NC(=O)Nc3cccnc3)cc2)nc(N2CCOCC2)c1OCC` [MTR-0205, 5-Ethoxy-6-morpholin-4-yl-2-[4-(3-pyridin-3-yl-ureido)-phenyl]-pyrimidine-4-carboxylic acid ethyl ester] as the compound, how does the inhibition at 0.5 µM (PI3K (p110α/p85α)) read?
A: 42.6%

Q: How did the inhibition at 0.5 µM (PI3K (p110α/p85α)) turn out when `NC(=O)c1ccc(NC(=O)Nc2ccc(-c3ncc(OCCN4CCOCC4)c(N4CCOCC4)n3)cc2)cc1` [MTR-0456, 4-(3-{4-[4-Morpholin-4-yl-5-(2-morpholin-4-yl-ethoxy)-pyrimidin-2-yl]-phenyl}-ureido)-benzamide] was run?
A: 52.6%

Q: With `CSc1cnc(-c2ccc(NC(=O)Nc3ccncc3)cc2)nc1N1CCOCC1` [MTR-0462, 1-[4-(5-Methylsulfanyl-4-morpholin-4-yl-pyrimidin-2-yl)-phenyl]-3-pyridin-4-yl-urea] as the compound, how does the inhibition at 0.5 µM (PI3K (p110α/p85α)) read?
A: 67.9%

Q: Which inhibition at 0.5 µM (PI3K (p110α/p85α)) does the source give for `CSc1cnc(-c2ccc(NC(=O)Nc3ccc(NC(C)=O)cc3)cc2)nc1N1CCOCC1` [MTR-0380, N-(4-{3-[4-(5-Methylsulfanyl-4-morpholin-4-yl-pyrimidin-2-yl)-phenyl]-ureido}-phenyl)-acetamide] here?
A: 101%

Q: `CSc1c(Cl)nc(-c2ccc(NC(=O)Nc3ccc(S(C)(=O)=O)cc3)cc2)nc1N1CCOCC1` [MTR-0387, 1-[4-(4-Chloro-5-methylsulfanyl-6-morpholin-4-yl-pyrimidin-2-yl)-phenyl]-3-(4-methanesulfonyl-phenyl)-urea] was tested. Which inhibition at 0.5 µM (PI3K (p110α/p85α)) did it give?
A: 83.1%

Q: Which inhibition at 0.5 µM (PI3K (p110α/p85α)) does the source give for `CCOc1cnc(-c2ccc(NC(=O)Nc3ccc(NC(C)=O)nc3)cc2)nc1N1CCOCC1` [MTR-0442, N-(5-{3-[4-(5-Ethoxy-4-morpholin-4-yl-pyrimidin-2-yl)-phenyl]-ureido}-pyridin-2-yl)-acetamide] here?
A: 79.1%

Q: For `CCOC(=O)c1nc(-c2ccc(NC(=O)Nc3ccc(N4CCOCC4=O)cc3)cc2F)nc(N2CCOCC2)c1OCC` [MTR-0322, 5-Ethoxy-2-(2-fluoro-4-{3-[4-(3-oxo-morpholin-4-yl)-phenyl]-ureido}-phenyl)-6-morpholin-4-yl-pyrimidine-4-carboxylic acid ethyl ester], which inhibition at 0.5 µM (PI3K (p110α/p85α)) is on record?
A: 44.2%

Q: With `CSc1c(Cl)nc(-c2ccc(NC(=O)Nc3ccc(N4CCN(C)CC4)nc3)cc2)nc1N1CCOCC1` [MTR-0236, 1-[4-(4-Chloro-5-methylsulfanyl-6-morpholin-4-yl-pyrimidin-2-yl)-phenyl]-3-[6-(4-methyl-piperazin-1-yl)-pyridin-3-yl]-urea] as the compound, how does the inhibition at 0.5 µM (PI3K (p110α/p85α)) read?
A: 61.2%

Q: For `CCOc1cnc(-c2ccc(NC(=O)Nc3ccc(N4CCOCC4=O)cc3)cc2)nc1N1CCOCC1` [MTR-0325, 1-[4-(5-Ethoxy-4-morpholin-4-yl-pyrimidin-2-yl)-phenyl]-3-[4-(3-oxo-morpholin-4-yl)-phenyl]-urea], which inhibition at 0.5 µM (PI3K (p110α/p85α)) is on record?
A: 91.5%

Q: Which inhibition at 0.5 µM (PI3K (p110α/p85α)) does the source give for `COc1cnc(-c2ccc(NC(=O)Nc3ccc(F)cc3)cc2)nc1N1CCOCC1` [MTR-0152, 1-(4-Fluoro-phenyl)-3-[4-(5-methoxy-4-morpholin-4-yl-pyrimidin-2-yl)-phenyl]-urea] here?
A: 83%

Q: For `CCOc1cnc(-c2ccc(NC(=O)Nc3ccc(S(N)(=O)=O)cc3)cc2)nc1N1CCOCC1` [MTR-0326, 4-{3-[4-(5-Ethoxy-4-morpholin-4-yl-pyrimidin-2-yl)-phenyl]-ureido}-benzenesulfonamide], which inhibition at 0.5 µM (PI3K (p110α/p85α)) is on record?
A: 90.7%

Q: `CSc1cnc(-c2ccc(NC(=O)Nc3ccc(C(=O)O)cc3)cc2)nc1N1CCOCC1` [MTR-0316, 4-{3-[4-(5-Methylsulfanyl-4-morpholin-4-yl-pyrimidin-2-yl)-phenyl]-ureido}-benzoic acid] was tested. Which inhibition at 0.5 µM (PI3K (p110α/p85α)) did it give?
A: 55.9%

Q: For `CSc1c(Cl)nc(-c2ccc(NC(=O)Nc3ccc(N4CCN(C)CC4)cc3)cc2)nc1N1CCOCC1` [MTR-0215, 1-[4-(4-Chloro-5-methylsulfanyl-6-morpholin-4-yl-pyrimidin-2-yl)-phenyl]-3-[4-(4-methyl-piperazin-1-yl)-phenyl]-urea], which inhibition at 0.5 µM (PI3K (p110α/p85α)) is on record?
A: 53.6%

Q: For `COc1cnc(-c2ccc(NC(=O)Nc3cccc(NC(C)=O)c3)cc2)nc1N1CCOCC1` [MTR-0426, N-(3-{3-[4-(5-Methoxy-4-morpholin-4-yl-pyrimidin-2-yl)-phenyl]-ureido}-phenyl)-acetamide], which inhibition at 0.5 µM (PI3K (p110α/p85α)) is on record?
A: 58.4%

Q: Which inhibition at 0.5 µM (PI3K (p110α/p85α)) does the source give for `CCOC(=O)c1nc(-c2ccc(NC(=O)Nc3ccc(NC(C)=O)cc3)cc2)nc(N2CCOCC2)c1OCC` [MTR-0370, 2-{4-[3-(4-Acetylamino-phenyl)-ureido]-phenyl}-5-ethoxy-6-morpholin-4-yl-pyrimidine-4-carboxylic acid ethyl ester] here?
A: 61.8%

Q: How did the inhibition at 0.5 µM (PI3K (p110α/p85α)) turn out when `CCOC(=O)c1nc(-c2ccc(NC(=O)Nc3ccc(C(N)=O)cc3)cc2)nc(N2CCOCC2)c1OCC` [MTR-0244, 2-{4-[3-(4-Carbamoyl-phenyl)-ureido]-phenyl}-5-ethoxy-6-morpholin-4-yl-pyrimidine-4-carboxylic acid ethyl ester] was run?
A: 60%

Q: For `CSc1cnc(-c2ccc(NC(=O)Nc3ccc(N4CCOCC4)c(F)c3)cc2)nc1N1CCOCC1` [MTR-0226, 1-(3-Fluoro-4-morpholin-4-yl-phenyl)-3-[4-(5-methylsulfanyl-4-morpholin-4-yl-pyrimidin-2-yl)-phenyl]-urea], which inhibition at 0.5 µM (PI3K (p110α/p85α)) is on record?
A: 45.7%

Q: With `CSc1c(Cl)nc(-c2ccc(NC(=O)Nc3ccc(C(N)=O)cc3)cc2)nc1N1CCOCC1` [MTR-0257, 4-{3-[4-(4-Chloro-5-methylsulfanyl-6-morpholin-4-yl-pyrimidin-2-yl)-phenyl]-ureido}-benzamide] as the compound, how does the inhibition at 0.5 µM (PI3K (p110α/p85α)) read?
A: 95.5%

Q: With `COc1cnc(-c2ccc(NC(=O)Nc3ccc(N4CCOCC4=O)cc3)cc2F)nc1N1CCOCC1` [MTR-0406, 1-[3-Fluoro-4-(5-methoxy-4-morpholin-4-yl-pyrimidin-2-yl)-phenyl]-3-[4-(3-oxo-morpholin-4-yl)-phenyl]-urea] as the compound, how does the inhibition at 0.5 µM (PI3K (p110α/p85α)) read?
A: 78.4%

Q: `CSc1c(-c2cccnc2)nc(-c2ccc(NC(=O)Nc3ccc(N4CCOCC4=O)cc3)cc2)nc1N1CCOCC1` [MTR-0457, 1-[4-(5-Methylsulfanyl-4-morpholin-4-yl-6-pyridin-3-yl-pyrimidin-2-yl)-phenyl]-3-[4-(3-oxo-morpholin-4-yl)-phenyl]-urea] was tested. Which inhibition at 0.5 µM (PI3K (p110α/p85α)) did it give?
A: 47.4%

Q: For `CSc1c(Cl)nc(-c2ccc(NC(=O)Nc3ccc(S(N)(=O)=O)cc3)cc2F)nc1N1CCOCC1` [MTR-0412, 4-{3-[4-(4-Chloro-5-methylsulfanyl-6-morpholin-4-yl-pyrimidin-2-yl)-3-fluoro-phenyl]-ureido}-benzenesulfonamide], which inhibition at 0.5 µM (PI3K (p110α/p85α)) is on record?
A: 82.7%

Q: `CCOC(=O)c1ccc(NC(=O)Nc2ccc(-c3nc(C(=O)OCC)c(OCC)c(N4CCOCC4)n3)cc2)cc1` [MTR-0362, 5-Ethoxy-2-{4-[3-(4-ethoxycarbonyl-phenyl)-ureido]-phenyl}-6-morpholin-4-yl-pyrimidine-4-carboxylic acid ethyl ester] was tested. Which inhibition at 10 µM (recombinant mTOR) did it give?
A: 84%

Q: `CCOc1c(C(=O)O)nc(-c2ccc(NC(=O)Nc3ccccc3)cc2)nc1N1CCOCC1` [MTR-0118, 5-Ethoxy-6-morpholin-4-yl-2-[4-(3-phenyl-ureido)-phenyl]-pyrimidine-4-carboxylic acid] was tested. Which inhibition at 10 µM (recombinant mTOR) did it give?
A: 94%
